# Reference: US9023789B2, “Amylin analogs and pharmaceutical compositions thereof” (Novo Nordisk A/S, priority 2012, dated 2015)
# Numbered stars: 1 amine (or outer) side, 2 acyl side, 3 side chain; on linkers, the order of the positions; unused ones are H or OH. Bridge positions count the residues as written; N and C are the ends. Side chains are listed from the residue outwards. Peptide text beside a SMILES is read from it. * marks the point of attachment. C20 diacid = O=C(O)CCCCCCCCCCCCCCCCCCC(=O)*; γGlu = O=C(O)[C@H](CCC(=O)[*:2])N[*:1]; AEEA = NCCOCCOCC(=O)O
# Columns and labels:
# [1] = ASSAY (III) ThT fibrillation assay for physical stability; type: physicochemical
# How it was run: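 Physical stability scored by ThT fluorescence (444 nm excitation, 485 nm emission) tracked every 20 min during 37 °C incubation with 960 rpm shaking, ThT at 1 μM final. Values are replicate means with SD at chosen times; HPLC against pramlintide standard gives initial and post-assay soluble concentrations.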
# [2] = target: T1, human amylin receptor (membranes from Amylin 3(a)/CRE-luc cells) (Homo sapiens, UniProt O60896+P30988); experiment: ASSAY (V) binding to the human amylin receptor (SPA, 125I-rat amylin); conditions: for IC50: Table 4, read-out: hAmylin-R bind IC50;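 for all read-outs here: competition binding of cell membranes (35 ng/µL) mixed with SPA beads in 384-well plates at 40 µL total volume, read by scintillation counting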
# T1 construct: expressed in transfected cells
# T1 sequence (P30988 25-474): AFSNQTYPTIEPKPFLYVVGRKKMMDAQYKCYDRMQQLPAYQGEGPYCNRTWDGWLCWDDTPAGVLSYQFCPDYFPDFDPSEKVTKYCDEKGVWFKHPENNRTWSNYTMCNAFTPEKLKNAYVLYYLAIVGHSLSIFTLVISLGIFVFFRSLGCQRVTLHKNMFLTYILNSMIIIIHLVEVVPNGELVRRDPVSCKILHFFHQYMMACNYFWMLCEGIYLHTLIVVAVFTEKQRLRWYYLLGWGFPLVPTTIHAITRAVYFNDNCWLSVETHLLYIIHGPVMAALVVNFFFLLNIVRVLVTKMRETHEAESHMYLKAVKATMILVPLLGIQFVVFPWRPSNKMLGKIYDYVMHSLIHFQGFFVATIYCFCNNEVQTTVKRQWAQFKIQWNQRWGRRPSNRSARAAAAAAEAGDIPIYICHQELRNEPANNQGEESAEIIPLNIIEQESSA
# T1 sequence (O60896 24-148 partner): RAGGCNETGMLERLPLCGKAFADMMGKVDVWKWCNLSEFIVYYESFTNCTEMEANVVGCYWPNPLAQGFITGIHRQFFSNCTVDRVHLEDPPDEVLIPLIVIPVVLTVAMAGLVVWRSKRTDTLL
# [3] = target: T2, rat calcitonin receptor (Rattus norvegicus, UniProt P32214); experiment: ASSAY (VIII) binding to the rat calcitonin receptor; conditions: Table 7, read-out: rCTR bind IC50
# T2 construct: expressed in transfected cells; host or cells: BHK tk'ts 13 (transient, FuGENE 6), membranes
# T2 sequence (P32214 25-479 isoform P32214-2 limits assumed): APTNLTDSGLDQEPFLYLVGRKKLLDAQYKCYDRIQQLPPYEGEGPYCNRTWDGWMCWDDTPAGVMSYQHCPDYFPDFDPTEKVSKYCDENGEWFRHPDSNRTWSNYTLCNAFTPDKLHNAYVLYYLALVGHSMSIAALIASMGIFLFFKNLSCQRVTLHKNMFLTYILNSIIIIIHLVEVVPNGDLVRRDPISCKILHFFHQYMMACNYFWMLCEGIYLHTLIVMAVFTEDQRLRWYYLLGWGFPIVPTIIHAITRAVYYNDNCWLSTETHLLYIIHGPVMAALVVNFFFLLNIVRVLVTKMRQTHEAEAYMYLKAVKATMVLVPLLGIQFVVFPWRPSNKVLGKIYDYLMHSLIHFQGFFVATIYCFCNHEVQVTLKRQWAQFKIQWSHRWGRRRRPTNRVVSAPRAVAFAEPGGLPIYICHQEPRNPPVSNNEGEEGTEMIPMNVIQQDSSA
# How it was run: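 Cell membranes for binding came from BHK tk′ts 13 cells harvested approximately 48 hours after transient transfection with the rat receptor.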
# [4] = Table 5, selectivity, hCTR bind IC50 / hAmylin-R bind IC50
# [5] = Table 5a, selectivity, hCTR bind IC50 / hAmylin-R bind IC50
# [6] = Table 5b, selectivity, hCTR bind IC50 / hAmylin-R bind IC50
# [7] = Table 5c, selectivity, hCTR bind IC50 / hAmylin-R bind IC50
# [8] = Table 7, human binding selectivity, included for comparison
# [9] = Table 7a (preferred compounds), human binding selectivity, included for comparison
# [10] = ratio of human calcitonin receptor binding IC50 to human amylin receptor binding IC50
SMILES,ThT pH 4.0 lag time (h) [1],IC50 [2],"Ratio hCT/hAmylin binding [2, 4]","Ratio hCT/hAmylin binding [2, 5]","Ratio hCT/hAmylin binding [2, 6]","Ratio hCT/hAmylin binding [2, 7]","Ratio hCT/hAmylin binding [2, 8]","Ratio hCT/hAmylin binding [2, 9]","Ratio hCT/hAmylin binding [2, 10]",IC50 [3]
CC[C@H](C)[C@H](NC(=O)[C@H](C)NC(=O)CNC(=O)[C@H](Cc1ccccc1)NC(=O)[C@H](CC(N)=O)NC(=O)[C@@H]1CCCN1C(=O)[C@H](CO)NC(=O)[C@H](CO)NC(=O)[C@H](Cc1c[nH]cn1)NC(=O)[C@H](CCCNC(=N)N)NC(=O)[C@H](CC(C)C)NC(=O)[C@H](Cc1ccccc1)NC(=O)[C@H](Cc1c[nH]cn1)NC(=O)[C@H](C)NC(=O)[C@H](CC(C)C)NC(=O)[C@H](CCCNC(=N)N)NC(=O)[C@H](CCC(N)=O)NC(=O)[C@@H](NC(=O)[C@H](C)NC(=O)[C@@H]1CSSC[C@H](NC(=O)[C@@H](N)CCCCNC(=O)CC[C@H](NC(=O)CCCCCCCCCCCCCCCCCCC(=O)O)C(=O)O)C(=O)N[C@@H](CC(N)=O)C(=O)N[C@@H]([C@@H](C)O)C(=O)N[C@@H](C)C(=O)N[C@@H]([C@@H](C)O)C(=O)N1)[C@@H](C)O)C(=O)N1CCC[C@H]1C(=O)N[C@@H](CO)C(=O)N[C@@H](CO)C(=O)N[C@H](C(=O)N[C@@H](CC(N)=O)C(=O)N[C@H](C(=O)NCC(=O)N[C@@H](CO)C(=O)N[C@@H](CC(N)=O)C(=O)N[C@H](C(=O)N[C@@H](Cc1ccc(O)cc1)C(N)=O)[C@@H](C)O)C(C)C)[C@@H](C)O [Example 70] (H-K([γGlu-C20 diacid])CNTATCATQRLAHFLRHSSPNFGAIPSSTNVGSNTY-NH2; disulfide 2-7; N-terminus assumed),7 h,0.169 nM,60.8,60.8,60.8,60.8,60.8,60.8,60.8,34.2 nM
CC[C@H](C)[C@H](NC(=O)[C@H](C)NC(=O)CNC(=O)[C@H](Cc1ccccc1)NC(=O)[C@H](CC(N)=O)NC(=O)[C@@H]1CCCN1C(=O)[C@H](CO)NC(=O)[C@H](CO)NC(=O)[C@H](Cc1c[nH]cn1)NC(=O)[C@H](CCCNC(=N)N)NC(=O)[C@H](CC(C)C)NC(=O)[C@H](Cc1ccccc1)NC(=O)CNC(=O)[C@H](C)NC(=O)[C@H](CC(C)C)NC(=O)[C@H](CCCNC(=N)N)NC(=O)[C@H](CCC(N)=O)NC(=O)[C@@H](NC(=O)[C@H](C)NC(=O)[C@@H]1CSSC[C@H](NC(=O)[C@@H](N)CCCCNC(=O)COCCOCCNC(=O)CC[C@H](NC(=O)CCCCCCCCCCCCCCCCCCC(=O)O)C(=O)O)C(=O)N[C@@H](CC(N)=O)C(=O)N[C@@H]([C@@H](C)O)C(=O)N[C@@H](C)C(=O)N[C@@H]([C@@H](C)O)C(=O)N1)[C@@H](C)O)C(=O)N1CCC[C@H]1C(=O)N[C@@H](CO)C(=O)N[C@@H](CO)C(=O)N[C@H](C(=O)N1CCC[C@H]1C(=O)N[C@H](C(=O)NCC(=O)N[C@@H](CO)C(=O)N[C@@H](CC(N)=O)C(=O)N[C@H](C(=O)N[C@@H](Cc1ccc(O)cc1)C(N)=O)[C@@H](C)O)C(C)C)[C@@H](C)O [Example 71] (H-K([AEEA-γGlu-C20 diacid])CNTATCATQRLAGFLRHSSPNFGAIPSSTPVGSNTY-NH2; disulfide 2-7),11 h,,32.0,32.0,32.0,32.0,32.0,32.0,32.0,44.8 nM
CC[C@H](C)[C@H](NC(=O)[C@H](C)NC(=O)CNC(=O)[C@H](Cc1ccccc1)NC(=O)[C@H](CC(N)=O)NC(=O)[C@@H]1CCCN1C(=O)[C@H](CO)NC(=O)[C@H](CO)NC(=O)[C@H](Cc1c[nH]cn1)NC(=O)[C@H](CCCNC(=N)N)NC(=O)[C@H](CC(C)C)NC(=O)[C@H](Cc1ccccc1)NC(=O)[C@H](C)NC(=O)[C@H](C)NC(=O)[C@H](CC(C)C)NC(=O)[C@H](CCCNC(=N)N)NC(=O)[C@H](CCC(N)=O)NC(=O)[C@@H](NC(=O)[C@H](C)NC(=O)[C@@H]1CSSC[C@H](NC(=O)[C@@H](N)CCCCNC(=O)COCCOCCNC(=O)CC[C@H](NC(=O)CCCCCCCCCCCCCCCCCCC(=O)O)C(=O)O)C(=O)N[C@@H](CC(N)=O)C(=O)N[C@@H]([C@@H](C)O)C(=O)N[C@@H](C)C(=O)N[C@@H]([C@@H](C)O)C(=O)N1)[C@@H](C)O)C(=O)N1CCC[C@H]1C(=O)N[C@@H](CO)C(=O)N[C@@H](CO)C(=O)N[C@H](C(=O)N1CCC[C@H]1C(=O)N[C@H](C(=O)NCC(=O)N[C@@H](CO)C(=O)N[C@@H](CC(N)=O)C(=O)N[C@H](C(=O)N[C@@H](Cc1ccc(O)cc1)C(N)=O)[C@@H](C)O)C(C)C)[C@@H](C)O [Example 72] (H-K([AEEA-γGlu-C20 diacid])CNTATCATQRLAAFLRHSSPNFGAIPSSTPVGSNTY-NH2; disulfide 2-7 (inferred); N-terminus assumed),13 h,0.172 nM,246.6,246.6,246.6,246.6,246.6,246.6,246.6,221 nM
CC[C@H](C)[C@H](NC(=O)[C@H](C)NC(=O)CNC(=O)[C@H](Cc1ccccc1)NC(=O)[C@H](CC(N)=O)NC(=O)[C@@H]1CCCN1C(=O)[C@H](CO)NC(=O)[C@H](CO)NC(=O)[C@H](Cc1c[nH]cn1)NC(=O)[C@H](CCCNC(=N)N)NC(=O)[C@H](CC(C)C)NC(=O)[C@H](Cc1ccccc1)NC(=O)[C@H](CO)NC(=O)[C@H](C)NC(=O)[C@H](CC(C)C)NC(=O)[C@H](CCCNC(=N)N)NC(=O)[C@H](CCC(N)=O)NC(=O)[C@@H](NC(=O)[C@H](C)NC(=O)[C@@H]1CSSC[C@H](NC(=O)[C@@H](N)CCCCNC(=O)COCCOCCNC(=O)CC[C@H](NC(=O)CCCCCCCCCCCCCCCCCCC(=O)O)C(=O)O)C(=O)N[C@@H](CC(N)=O)C(=O)N[C@@H]([C@@H](C)O)C(=O)N[C@@H](C)C(=O)N[C@@H]([C@@H](C)O)C(=O)N1)[C@@H](C)O)C(=O)N1CCC[C@H]1C(=O)N[C@@H](CO)C(=O)N[C@@H](CO)C(=O)N[C@H](C(=O)N1CCC[C@H]1C(=O)N[C@H](C(=O)NCC(=O)N[C@@H](CO)C(=O)N[C@@H](CC(N)=O)C(=O)N[C@H](C(=O)N[C@@H](Cc1ccc(O)cc1)C(N)=O)[C@@H](C)O)C(C)C)[C@@H](C)O [Example 73] (H-K([AEEA-γGlu-C20 diacid])CNTATCATQRLASFLRHSSPNFGAIPSSTPVGSNTY-NH2; disulfide 2-7 (inferred)),12 h,,51.7,51.7,51.7,51.7,51.7,51.7,51.7,50.3 nM
